Among the test systems are CCRF-CEM leukemia; HL-60(TB) leukemia; HT29 colon; IGROV1 ovarian; M14 melanoma; NCI/ADR-RES ovarian; PC-3 prostate; SK-MEL-5 melanoma; T-47D breast; BT-549 breast.
Holding throughout (assay): DTP human tumour cell line panel, 48 h

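Cells were grown in 96-well plates and exposed to each compound for 48 hours at five concentrations; endpoints were interpolated linearly between bracketing concentrations, or set to the highest concentration if not reached. GI50 is the concentration that inhibits growth by half. TGI: total growth inhibition.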

In general, TGI refers to the concentration giving total growth inhibition. A low value points to greater sensitivity of the cells. Take `Cc1cc2c(cc1Cl)SC(c1ccccc1)C(=O)NS2(=O)=O` (stereo unspecified): the TGI with CCRF-CEM leukemia is > 100 µM; in the assay on HL-60(TB) leukemia it was 58.9 µM; in the assay with HT29 colon, > 100 µM; in the assay with IGROV1 ovarian, > 100 µM; with M14 melanoma it was > 100 µM; in the assay with NCI/ADR-RES ovarian it was 91.9 µM. Also, the TGI with PC-3 prostate came out at 70.7 µM; with SK-MEL-5 melanoma it was 48.8 µM; in the assay with T-47D breast, 84.6 µM.

Consider `Cc1ccc(NP(=O)(Oc2ccccc2)N(CCCl)CCCl)cc1` (stereo unspecified), for which the total growth inhibition concentration (TGI) in the assay on HL-60(TB) leukemia, in the assay on HT29 colon, in the assay with IGROV1 ovarian, in the assay on M14 melanoma and in the assay with SK-MEL-5 melanoma was > 100 µM in each case.

Take `CCCCCCCCCCCCCCCc1ccc(OCC(O)CO)cc1` (stereo unspecified): the TGI with CCRF-CEM leukemia was > 100 µM; in the assay with HL-60(TB) leukemia, 85 µM; in the assay with HT29 colon, 46.1 µM; in the assay on IGROV1 ovarian, > 100 µM; in the assay with M14 melanoma, 33.4 µM; in the assay on SK-MEL-5 melanoma it was > 100 µM.

`CCCCCCNC(=O)c1cc(CCc2cc(O)ccc2O)ccc1O`: the total growth inhibition concentration (TGI) was 4.35 µM with BT-549 breast; > 100 µM in the assay on CCRF-CEM leukemia; 4.11 µM in the assay on HL-60(TB) leukemia; 64.7 µM in the assay with HT29 colon; 5.66 µM in the assay with IGROV1 ovarian; 18.4 µM in the assay on M14 melanoma. In addition, the TGI was > 67.7 µM in the assay on NCI/ADR-RES ovarian, 6.49 µM in the assay on PC-3 prostate and 15.6 µM in the assay on SK-MEL-5 melanoma.

For `N#CC(c1nc2ccccc2s1)c1ncnc(Cl)c1[N+](=O)[O-]` (stereo unspecified), the TGI was 56.3 µM with BT-549 breast; > 100 µM in the assay with CCRF-CEM leukemia; 34.8 µM with HT29 colon; 30.5 µM in the assay with IGROV1 ovarian; 34.3 µM in the assay on M14 melanoma; 44.3 µM in the assay with NCI/ADR-RES ovarian. In addition, the figures for the TGI in the assay on SK-MEL-5 melanoma and in the assay with T-47D breast were 30 µM and 86.9 µM, respectively.

In the case of `Cc1cccc2cc3c(ccc4ccccc43)c[n+]12`, the TGI was 54.1 µM in the assay on BT-549 breast; > 100 µM in the assay on CCRF-CEM leukemia; > 100 µM in the assay on HL-60(TB) leukemia; > 100 µM in the assay with HT29 colon; > 100 µM in the assay with IGROV1 ovarian; > 100 µM with NCI/ADR-RES ovarian. Also, the figures for the TGI in the assay with PC-3 prostate and in the assay on SK-MEL-5 melanoma were > 100 µM and 22.1 µM, respectively.

With `Nc1ccc(-c2cssc2=S)cc1`, the total growth inhibition concentration (TGI) in the assay with BT-549 breast is > 100 µM; with HL-60(TB) leukemia, 62.5 µM; with HT29 colon, > 100 µM; in the assay on IGROV1 ovarian, > 100 µM; in the assay with M14 melanoma, > 100 µM; in the assay on NCI/ADR-RES ovarian, > 100 µM. For the same compound, the TGI with PC-3 prostate and with SK-MEL-5 melanoma was > 100 µM each time.

For the compound `CN(C)c1nc(N(C)C)nc(N(C)CN(C)c2ccc(Cl)cc2)n1`, the TGI with CCRF-CEM leukemia, with HL-60(TB) leukemia, in the assay on HT29 colon, in the assay with IGROV1 ovarian and in the assay with SK-MEL-5 melanoma was > 100 µM each time.

`O=c1cc(-c2ccc(O)cc2)n(C2CC2)c2ccccc12`: the TGI in the assay on CCRF-CEM leukemia was 72.2 µM; in the assay with HL-60(TB) leukemia it was 81.6 µM; with HT29 colon it was 9.25 µM; with IGROV1 ovarian it was > 100 µM; in the assay with M14 melanoma it was 20.7 µM; in the assay with NCI/ADR-RES ovarian, 38.8 µM. The TGI in the assay with PC-3 prostate was determined as 92.3 µM; with SK-MEL-5 melanoma it was 18.5 µM; in the assay with T-47D breast it was 20.7 µM.

Consider `Cc1nc2c(n1C)C(=O)c1nc(CBr)[nH]c(=O)c1C2=O`, for which the TGI is > 100 µM in the assay on CCRF-CEM leukemia; > 100 µM in the assay on HL-60(TB) leukemia; > 100 µM with HT29 colon; > 100 µM with IGROV1 ovarian; > 100 µM in the assay on M14 melanoma; 39 µM in the assay with SK-MEL-5 melanoma.

Take `C=CCc1cc(-c2cc(CC=C)c(O)c(CNC)c2)cc(CNC)c1O`: the TGI with CCRF-CEM leukemia amounted to 57 µM; in the assay on HL-60(TB) leukemia, 35.2 µM; in the assay on HT29 colon, 29.1 µM; in the assay with IGROV1 ovarian, 32.7 µM; in the assay on M14 melanoma, 30.5 µM; in the assay on SK-MEL-5 melanoma it was 29.7 µM.

For the compound `CSc1nc(NC2OCC(OC(C)=O)C(OC(C)=O)C2OC(C)=O)c(N=C(C)C(C)=O)c(=O)[nH]1` (stereo unspecified), the TGI in the assay with CCRF-CEM leukemia, in the assay on HL-60(TB) leukemia, in the assay on HT29 colon, in the assay with IGROV1 ovarian, with M14 melanoma and with SK-MEL-5 melanoma was > 100 µM each time.

By GI50 is commonly meant the concentration that inhibits growth by half. `COc1ccc(C2CC(c3cccc(Nc4ccncc4)c3)=NN2c2ccc(Cl)cc2)cc1` (stereo unspecified): the GI50 was 1.92 µM in the assay with BT-549 breast; 2.5 µM in the assay on CCRF-CEM leukemia; 1.91 µM with HL-60(TB) leukemia; 1.68 µM with IGROV1 ovarian; 1.61 µM in the assay with M14 melanoma; 1.73 µM with NCI/ADR-RES ovarian. The GI50 with PC-3 prostate was 1.44 µM; with SK-MEL-5 melanoma, 1.77 µM. Further, the TGI came to 4 µM in the assay on BT-549 breast; 7.74 µM in the assay on CCRF-CEM leukemia; 4.06 µM in the assay with HL-60(TB) leukemia; 3.28 µM in the assay with IGROV1 ovarian; 3.24 µM in the assay on M14 melanoma; 3.3 µM with NCI/ADR-RES ovarian. Also, the TGI came to 2.96 µM in the assay on PC-3 prostate and 3.18 µM in the assay on SK-MEL-5 melanoma.

For `N#Cc1c2c(c(Nc3cccc(C(F)(F)F)c3)n3c1nc1ccccc13)CCC2`, the TGI with BT-549 breast, with HT29 colon, in the assay with NCI/ADR-RES ovarian, with SK-MEL-5 melanoma and with T-47D breast was > 100 µM in each case.

The record behind these values is PubChem BioAssay (NCI).
